From patent US11419902B2, “Compositions comprising bacterial strains” (4D Pharma Research Limited, priority 2018, dated 2022)

Tests used:
[1] = system: MAP2; test: MAP2 expression in SH-SY5Y cells (qPCR, Example 22); assay type: cell-based; settings: 10% bacterial supernatants 17 h, vs negative control and media control
Description: SH-SY5Y were plated in 6 well plates at a density of 0.5×10^6 cells. After 24 h, cells were treated in differentiation medium (growth medium containing 1% FBS) with 10% bacterial supernatants or YCFA+ for 17 h. Cells were collected, and total RNA was isolated according to the RNeasy mini kit protocol (Qiagen). cDNA was made using the High Capacity cDNA reverse transcription kit (Applied Biosystems). Gene expression was measured by qPCR. GAPDH was used as internal control. Fold change was calculated according to the 2^(−ΔΔct) method. Primer sets used are listed as SEQ ID NOs: 2, 3, 4 and 5.

[2] = system: IL-8; test: IL-8 secretion by differentiated HT29-mtx cells; assay type: cell-based; settings: 24 h, vs untreated and YCFA+-treated cells
Text: The ability of MRx0029 to cause any intestinal barrier dysfunction was investigated. HT29-mtx epithelial, mucin-producing cell monolayers were used as an in vitro model to evaluate gut barrier disruption and immune stimulation following treatment with MRx0029.

[3] = system: ERK signalling (phosphorylated ERK1 and 2/total ERK); test: ERK signalling in SKMEL31 cell line (Western blot); assay type: cell-based; settings: SKMEL31, relative to the negative control (YFCA+)
Description: Following 24 h treatment with the appropriate drugs either in presence of 10% bacterial supernatant or absence (YCFA+), protein extracts were obtained by lysing cells in RIPA buffer (R0278; Sigma Aldrich) supplemented with protease inhibitors (cOmplete Protease Inhibitor Cocktail Tablets; Roche, Switzerland) and 1 mM/L sodium orthovanadate, 0.5 mM/L PMSF. Protein quantification was done by the BCA protein assay. Equal amounts of total protein (20 μg/lane) were then separated by SDS-PAGE on 4-15% gradient gel (BioRad) and transferred to polyvinylidene difluoride (PVDF) membranes (Thermo Fisher Scientific, Loughborough). […]
Proteins of interest were detected with the appropriate HRP-conjugated secondary antibody (1:10,000, Thermo Fisher Scientific, Loughborough), developed with the ECL Western blotting Super Signal PicoPlus substrate (34577; Thermo Fisher Scientific, Loughborough), and visualised in Chemidoc XRS Imager (BioRad).
The effects of the following treatments were assessed on the SKMEL31 melanoma cell line (heterozygous for BRAF V600E): (1) MRx0029; (2) Vemurafenib (VEMU) in YFCA+ medium; (3) VEMU and MRx0029; (4) Azacytidine-C (Aza-c) in YFCA+ medium; (5) Aza-c and MRx0029; (6) VEMU, Aza-c and MRx0029.

[4] = system: TJP1 and Occludin; test: Ex vivo gene expression in the gut of mice fed with MRx0029; settings: colon region of the murine intestine
Description: The in vitro results were compared with data from the ex vivo parallel analysis on the gut of mice fed with MRx0029. Gene expression of TJP1 and Occludin was quantified in the colon and ileum. […] Animals were allowed to habituate to their holding room for one week after arrival into the animal unit. They receive oral gavage (200 μL dose) of live biotherapeutics at a dose of 1×10^9 CFU for 6 consecutive days between 15:00 and 17:00. On day 7, the animals are decapitated, and tissues are harvested for experimentation. Animals were sacrificed in a random fashion regarding treatment and testing condition; sampling occurred between 9.00 a.m. and 2:30 p.m. Trunk blood was collected in potassium EDTA (Ethylene Diamine Tetra Acetic Acid) tubes and spun for 15 min at 4000 g. Plasma was isolated and stored at −80° C. for further analysis. The brain was quickly excised, dissected and each brain region was snap-frozen on dry ice and stored at −80° C. for further analysis. Spleen was removed, collected in 5 mL RPMI media (with L-glutamine and sodium bicarbonate, R8758 Sigma+10% FBS (F7524, Sigma)+1% Pen/Strep (P4333, Sigma)) and processed immediately after culls for ex-vivo immune stimulation. […]

[5] = system: GPR109a; test: GPR109a RNA expression in differentiated Caco-2 cells (qPCR); assay type: cell-based

Megasphaera massiliensis MRx0029
MAP2 expression [1]: statistically-significant increase of MAP2 expression
secretion of IL-8 [2]: even lower secretion of IL-8
ERK signalling [3]: reduced ERK signalling
TJP1 gene expression in the colon [4]: significantly up-regulate
expression of GPR109a RNA with PMA ([5]; PMA plus supernatant vs PMA alone (or PMA in YCFA+ medium)): greater expression of GPR109a RNA
expression of GPR109a ([5]; without PMA): increased expression of GPR109a
